Data reported in US6613770B1, “Quinoline derivatives as NK-2 and NK-3 receptor ligands” (SmithKline Beecham S.p.A., priority 1998, dated 2003).
Structures can show the parent of a compound that is named as a salt.

melting point [°C] | SMILES
207 to 209 | C[C@H](NC(=O)c1c(CN2CCOCC2)c(-c2ccccc2)nc2ccccc12)C(C)(C)C [Example 7, 3-Morpholin-4-ylmethyl-2-phenyl-quinoline-4-carboxylic acid ((S)-1,2,2-trimethyl-propyl)-amide]
144 to 146 | O=C(N[C@H]1CCCc2ccccc21)c1c(CN2CCC(N3CCC(O)CC3)CC2)c(-c2ccccc2)nc2ccccc12 [Example 5, 3-(4-Hydroxy-[1,4′]bipiperidinyl-1′-ylmethyl)-2-phenyl-quinoline-4-carboxylic acid ((S)-1,2,3,4-tetrahydro-naphthalen-1-yl)-amide]
98 to 100 | O=C(N[C@H]1CCc2ccccc21)c1c(CN2CCC(N3CCC(O)CC3)CC2)c(-c2ccccc2)nc2ccccc12 [Example 6, 3-(4-Hydroxy-[1,4′]bipiperidinyl-1′-ylmethyl)-2-phenyl-quinoline-4-carboxylic acid (S)-indan-1-ylamide]
198 to 200 | CC(C)NC(=O)c1c(CN2CCN(C(C)C)CC2)c(-c2ccccc2)nc2ccccc12 (as salt: HCl) [Example 3, 3-(4-Isopropyl-piperazin-1-ylmethyl)-2-phenyl-quinoline-4-carboxylic acid isopropylamide]
215 to 217 | CC(C)CNC(=O)c1c(CN2CCN(C(C)C)CC2)c(-c2ccccc2)nc2ccccc12 [Example 2, 3-(4-Isopropyl-piperazin-1-ylmethyl)-2-phenyl-quinoline-4-carboxylic acid isobutyl-amide]
235 to 238 | CCC(CC)NC(=O)c1c(CN2CCN(C(C)C)CC2)c(-c2ccccc2)nc2ccccc12 (as salt: HCl) [Example 4, 3-(4-Isopropyl-piperazin-1-ylmethyl)-2-phenyl-quinoline-4-carboxylic acid (1-ethyl-propyl)-amide]
161 to 163 | CC(C)N1CCN(Cc2c(-c3ccccc3)nc3ccccc3c2C(=O)NC2CCCCC2)CC1 [Example 11, 3-(4-Isopropyl-piperazin-1-ylmethyl)-2-phenyl-quinoline-4-carboxylic acid cyclohexylamide]
219 to 220 | O=C(NC1C2CC3CC(C2)CC1C3)c1c(CN2CCC(N3CCCCC3)CC2)c(-c2ccccc2)nc2ccccc12 (centres unmarked) [Example 10, 3-[1,4′]Bipiperidinyl-1′-ylmethyl-2-phenyl-quinoline-4-carboxylic acid adamantan-2-ylamide]
